Results taken from patent publication US11219222B2, “Topical mosquito control product” (Penta 5 USA, LLC, priority 2016, dated 2022).
Several values for one entry are separate records, joined by “and”; a condition that tells them apart may be missing. Identical values can stand only once.

How the values were obtained:
Assay type in all cases: in vivo
Aedes aegypti mosquitos = experiment: Arm-in-cage test, protective efficacy; settings: for No. probing on treated arm: 30 seconds exposure; for No. probing on treated arm / % PE: per replicate cage; for Total % PE: three cages
Experimental: Additional testing was performed with the lotion formula of example 4 including: bee's wax, soybean oil, edible oil such as sunflower oil, isopropyl alcohol, cinnamon oil, cedar wood oil, citronella oil, turmeric, anise, basil oil, salt, ethyl ester, and water with the following protocols. Aedes aegypti mmosquitoes were obtained from insecticide-susceptible reference strains held at the London School of Hygiene & Tropical Medicine, UK. All mosquitoes are reared and housed under optimal environmental conditions of 25° C. ±2° C. and 80% Relative Humidity with a 12:12 hour photoperiod. Testing was carried out in a testing room maintained at […] and 80% RH with a 12:12 hour photoperiod. For each product, the same person carried out the arm-in-cage testing.
For each product test, three batches of 50 female mosquitoes were placed in cages 30×30×30 cm inside the testing room. Before the start of each test a bare arm with gloved hand was inserted into the cage for 30 seconds to assess the biting readiness of the mosquitoes. Only cages with at least ten mosquitoes landing within 30 seconds were used in subsequent testing. The number of mosquitoes probing the untreated arm was counted at the end of the 30 second test. Following the combined fitness/control test, the product was applied onto the right arm at the WHO standard rate of 1 ml per 600 cm2 ([…] per cm2) for the Mosquito Insect Repellent and DEET, and at a rate of 2 mg per cm′ for the Sunscreen Repellent. The arm was then inserted into the cage for 30 seconds and the number of mosquitoes probing on the arm counted and recorded. The procedure was repeated with a total of three cages. This was repeated for each of the three cages and at hourly intervals until 8 hours post-application or until protection drops below 50%. Each product was tested on a separate test day.
Protective efficacy (PE) was calculated using the following formula: PE=(Mosquitoes probing on control arm—Mosquitoes probing on treated arm)/Mosquitoes probing on control arm×100. The average probing on the control arm during testing was 16, 17 and 21 mosquitoes at the end of the 30 second exposure time, in cages used for testing the Mosquito Insect Repellent Lotion and 8% DEET respectively. The Mosquito Insect Repellent Lotion 100% protection at 0 hours, whereas the 8% DEET provided 100% protection for 1 hour after application (Table 1). The Mosquito Insect Repellent Lotion provided over 50% protection for, 3 hours, whereas 8% DEET provided over 50% protection for 6 hours.

[1] = system: yellow fever mosquitos, Aedes aegypti; experiment: In vitro K & D module biting bioassay, compositions of examples 1-3 vs DEET
Experimental: The deterrent effect of the above-described compositions of examples 1 -3 was tested in a controlled environment. In vitro laboratory tests were conducted and measured and compared to DEET and nontreated control groups for yellow fever mosquitos, Aedes aegypti. Bioassays were conducted in nine six-chambered Plexiglas K & D modules stocked with female Aedes aegypti mosquitos as shown in FIGS. 1-3. Five female mosquitos were aspirated into each of the six chambers of the nine modules. Repellant treatments were applied at 26.7 microliters with a pipette and spread with a small brush over 12 square centimeter sections of organdy cloth attached to a flat plastic template containing rectangular openings. The treated cloth covered template was fitted between the K & D module and a lower Plexiglas unit. The lower Plexiglas unit contained shallow surface wells filled with a blood substitute (CDTA and ATP) and covered with a moistened collagen membrane. The blood substitute was heated to 38° C. using water pumped through hose lines attached to the lower units and a water bath supplied with a temperature controlled inversion circulator. Mosquitos were exposed to the treated surfaces by opening sliding doors beneath the modules for 90-second biting counts at five post-treatment time intervals from 1 to 6 hours. Fresh, untreated mosquitos are used for each time interval.
The testing protocol including the in vitro environment provides a rigorous testing of the repellency of the composition as the mosquitos are confined with a blood meal.
An unpaired t-test was conducted on the biting counts between lotion as described herein and the control group where there was no treatment applied between the mosquito and the blood well. […] The statistical factors include t=5.8704 where df=16 and a standard error of difference is equal to 0.530. The two-tailed p value is less than 0.0001. The reduction in biting pressure when using the compositions compared to the control group is significant at the 99.99 level of significance.

[2] = system: yellow fever mosquitoes, Aedes aegypti; experiment: In vitro K&D module biting bioassay, example 5 (No-Bite), No-Burn and 7% DEET; settings: 4 hours post-treatment; p>0.05
Experimental: The deterrent effect of the above-described compositions of example 5 (represented as NO-Bite in FIGS. 7-8) was tested in a controlled environment. In vitro laboratory tests were conducted and measured and compared to DEET and nontreated control groups for yellow fever mosquitos, Aedes aegypti. The repellency of the formulations were compared to a DEET standard, and a non-treated control against yellow fever mosquitoes, Aedes aegypti. The examples were performed in a temperature-controlled laboratory following techniques as disclosed in Klun, J. A., M. A. Kramer, A. Zhang, S. Wang, and M. Debboun. 2008. A quantitative in vitro assay for mosquito deterrent activity without human blood cells. J Am. Mosq. Contr. Assoc. 24:508-512. […] Five colony-reared female Aedes aegypti were aspirated into each chamber (FIG. 1). […] The variance in biting count means by treatment and time intervals was statistically analyzed with SAS Proc ANOVA and statistically tested for significant differences with Tukey's Studentized Range test at p<0.05 and charted with 95% Confidence Intervals (C.I.). Average % repellency was calculated with the following formula and charted by treatment and time interval: (Control Avg. Biting Count—Treatment Avg. Biting Count)÷Control Avg. […]

For `CCN(CC)C(=O)c1cccc(C)c1` [8% DEET, DEET], the “No. probing on treated arm” value (Aedes aegypti mosquitos; 0 hours after application) was 0, the “% PE” value (Aedes aegypti mosquitos; 0 hours after application) was 100.00% and the “Total % PE” value (Aedes aegypti mosquitos; 0 hours after application) was 100.00%. For the same compound, the “No. probing on treated arm” value (Aedes aegypti mosquitos; 1 hour after application) was 0, the “% PE” value (Aedes aegypti mosquitos; 1 hour after application) was 100.00% and the “Total % PE” value (Aedes aegypti mosquitos; 1 hour after application) was 100.00%. The “No. probing on treated arm” value (Aedes aegypti mosquitos; 2 hours after application) was 1 and 2 and 0, the “% PE” value (Aedes aegypti mosquitos; 2 hours after application) was 91.67% and 90.91% and 100.00% and the “Total % PE” value (Aedes aegypti mosquitos; 2 hours after application) was 95.00%. The “No. probing on treated arm” value (Aedes aegypti mosquitos; 3 hours after application) was 2 and 0, the “% PE” value (Aedes aegypti mosquitos; 3 hours after application) was 90.00% and 100.00% and the “Total % PE” value (Aedes aegypti mosquitos; 3 hours after application) was 95.35%. For the same compound, the “No. probing on treated arm” value (Aedes aegypti mosquitos; 4 hours after application) was 2 and 1 and 0, the “% PE” value (Aedes aegypti mosquitos; 4 hours after application) was 91.67% and 94.12% and 100.00% and the “Total % PE” value (Aedes aegypti mosquitos; 4 hours after application) was 95.16%. For the same compound, the “No. probing on treated arm” value (Aedes aegypti mosquitos; 5 hours after application) was 2 (2×) and 3, the “% PE” value (Aedes aegypti mosquitos; 5 hours after application) was 93.10% and 88.89% and 86.96% and the “Total % PE” value (Aedes aegypti mosquitos; 5 hours after application) was 90.00%. For the same compound, the “No. probing on treated arm” value (Aedes aegypti mosquitos; 6 hours after application) was 10 and 6 and 7, the “% PE” value (Aedes aegypti mosquitos; 6 hours after application) was 41.18% and 57.14% and 65.00% and the “Total % PE” value (Aedes aegypti mosquitos; 6 hours after application) was 54.90%. The “No. probing on treated arm” value (Aedes aegypti mosquitos; 7 hours after application) was 7 and 6 and 9, the “% PE” value (Aedes aegypti mosquitos; 7 hours after application) was 36.36% and 50.00% (2×) and the “Total % PE” value (Aedes aegypti mosquitos; 7 hours after application) was 46.34%. For the same compound, the “time after application for which 100% protection was provided” value (Aedes aegypti mosquitos; arm-in-cage, hourly intervals) was 1 h and the “time for which over 50% protection was provided” value (Aedes aegypti mosquitos; arm-in-cage, hourly intervals) was 6 h.
In the case of `CCN(CC)C(=O)c1cccc(C)c1` [DEET], the repellency ([1]; 6 hour time period) is reported as 87.1%, the “repellency, average for all five time periods” value ([1]; average of five post-treatment time intervals) is reported as 86.52% and the repellency ([1]; initial start time of zero, 90-second biting counts, 26.7 microliters on 12 square centimeter cloth) is reported as 91.9%. For the same compound, the “biting activity compared with control” value [2] was “no significance difference”.
